Key:
solubility in solvents = type: physicochemical
[1] = repeated administration: immunogenicity and toxicity; type: in vivo

- solubility in organic solvents (solubility in solvents; ethyl acetate, butyl acetate, ethyl ether, hexane, petroleum ether, benzene, chloroform): insoluble
- solubility in methanol and acetic acid (solubility in solvents; methanol, acetic acid): partially
- solubility in water (solubility in solvents; water): soluble
Compound: CC[C@H](C)[C@@H]1NC(=O)[C@H](CCCNC(=N)N)NC(=O)[C@H](CC(=O)O)NC(=O)[C@H](CCSC)NC(=O)[C@H](CCCNC(=N)N)NC(=O)CNC(=O)CNC(=O)[C@H](Cc2ccccc2)NC(=O)[C@@H](NC(=O)[C@H](CO)NC(=O)[C@H](CO)NC(=O)[C@H](CCCNC(=N)N)NC(=O)[C@H](CCCNC(=N)N)NC(=O)[C@H](CC(C)C)NC(=O)[C@@H](N)CO)CSSC[C@@H](C(=O)N[C@@H](CC(N)=O)C(=O)N[C@@H](CO)C(=O)N[C@@H](Cc2ccccc2)C(=O)N[C@@H](CCCNC(=N)N)C(=O)N[C@@H](Cc2ccc(O)cc2)C(=O)O)NC(=O)CNC(=O)[C@H](CC(C)C)NC(=O)CNC(=O)[C@H](CO)NC(=O)[C@H](CCC(N)=O)NC(=O)[C@H](C)NC(=O)CNC(=O)[C@H]([C@@H](C)CC)NC(=O)[C@H](CCCNC(=N)N)NC(=O)[C@H](CC(=O)O)NC(=O)[C@H](CCSC)NC(=O)[C@H](CCCNC(=N)N)NC(=O)CNC(=O)CNC(=O)[C@H](Cc2ccccc2)NC(=O)[C@@H](NC(=O)[C@H](CO)NC(=O)[C@H](CO)NC(=O)[C@H](CCCNC(=N)N)NC(=O)[C@H](CCCNC(=N)N)NC(=O)[C@H](CC(C)C)NC(=O)[C@@H](N)CO)CSSC[C@@H](C(=O)N[C@@H](CC(N)=O)C(=O)N[C@@H](CO)C(=O)N[C@@H](Cc2ccccc2)C(=O)N[C@@H](CCCNC(=N)N)C(=O)N[C@@H](Cc2ccc(O)cc2)C(=O)O)NC(=O)CNC(=O)[C@H](CC(C)C)NC(=O)CNC(=O)[C@H](CO)NC(=O)[C@H](CCC(N)=O)NC(=O)[C@H](C)NC(=O)CNC1=O [β-hANP, β-human atrial natriuretic polypeptide]
- toxicity ([1]; gradually hydrolized in a body to L-amino acids): little toxicity
- anaphylaxis shock ([1]; repeated administration): does not cause anaphylaxis shock
- production of antibodies ([1]; repeated administration): does not stimulate production of antibodies

From patent US4656158A, “Peptide, and production and use thereof” (Suntory Limited, priority 1984, dated 1987)
